Columns and labels:
[1] = test system: SK-BR-3 and MCF-7 target cells; assay: ADCC 51Cr release assay; assay type: cell-based, human; conditions: whole blood or PBMC effector cells
Procedure: ADCC activity is an important anti-tumour mechanism of action for therapeutic antibodies in cancer. […] Trastuzumab and a negative control antibody were included as control antibodies in the experiment. Whole blood and PBMC fractions were obtained from healthy donors. Each antibody was tested against the HER2 high (SK-BR-3) and HER2 low (MCF-7) expressing target cells. Target cells were loaded with ^51Cr (Amersham) and opsonized with the indicated concentrations of antibody. Whole-blood or PBMC fraction were used as effector cells in a 200 µL reaction in RPMI 1640 + 10% heat inactivated FCS. Cells were incubated together for 4 h, and lysis was estimated by measuring radioactivity in the supernatant using a Y^- scintillator. Percentage of specific lysis was calculated as follows: (experimental cpm – basal cpm) / (maximal cpm – basal cpm) × 100, with maximal lysis determined in the presence of 5% Triton X-100 and basal lysis in the absence of antibody and effectors.
ADCC activity can be enhanced by different techniques, one of them being the removal of fucose. […] Both antibodies were applied in a serial dilution and a negative control antibody and trastuzumab were included in the assay.

JIMT-1 tumor = assay: JIMT-1 xenograft study; assay type: in vivo, CB.17 SCID mice; conditions: 2.5 and 25 mg/kg ip qwk × 4
Procedure: JIMT-1 human breast carcinoma cells were grown in DMEM containing 10% fetal bovine serum, 100 units/mL penicillin G sodium, 100 µg/mL streptomycin sulfate, 25 µg/mL gentamicin, and 2 mM glutamine until the time of implantation. At the day of implantation JIMT-1 breast cells were harvested during log phase growth and resuspended in cold PBS. […] Each mouse was injected subcutaneously in the right flank with 5 ×10^6 tumor cells (0.2 mL cell suspension). The tumors were measured with a caliper in two dimensions to monitor size as the mean volume twice per week. Once tumors had reached approximately 100-150 mm^3 in size animals were enrolled in the efficacy study. Outlier animals -tumor volume - were removed and the mice were randomly distributed into groups of 10 mice each. Mice were injected once weekly (antibody) or daily (lapatinib) for a period of four weeks. Details of the treatment groups are depicted in Table 11.
Tumor sizes were measured weekly by caliper measurement.

[2] = test system: HER2+, HER2++ and HER2+++ breast and gastric cancer cell lines; assay: FACS binding to cell lines with different HER2 levels; set-up: species or system human; conditions: HER2++ and HER2+ cells
Procedure: Cells were considered HER2+++ if they express millions of HER2 copies and/or are HER2 gene amplified. The following cell lines were used: MCF-7 (HER 2 +); MDA-MB-468 (HER2 +, MKN-45 (HER2 +), MDA-MB-175 (HER2+), MDA-MB-453 (HER2 ++), MDA-MB-361(HER2 ++), ZR-75-1(HER2 ++), JIMT-1 (HER2+++), BT-474 (HER2+++), SKBR-3 (HER2+++), SK-OV-3 (HER2+++), N87 (HER2+++). Cells of an exponentially grown culture were harvested by trypsin and diluted to 10^6 cells/ml in FACS buffer (PBS/0.5%BSA/0.5 mM EDTA). 1-2 10^5 cells were added to each well in a U-bottom 96 well plate. Cells were centrifuged for 2 minutes at 300 g at 4° C. Supernatant was discarded by inverting plate(s) above, followed by flicking once. 50 µl of each IgG sample was added in a serial dilution from 3.16 ng- 10 µg/ml and incubated for 1H on ice. Cells were centrifuged once, supernatant was removed and cells were washed twice with FACS buffer. 50 µl diluted 1:100 mouse anti human IgG gamma PE (INVITROGEN®) was added and incubated for 30-60 minutes on ice in the dark. […] Cells were analysed on a FACSCanto Flow cytometer in a HTS setting. The quantity of antibody bound was assessed by median fluorescence. Data were plotted and the area under the curve (AUC, a cumulative measurement of the median fluorescence intensity) was determined for each antibody per cell line tested (FIG. 26).

[3] = test system: HRG mediated phosphorylation in N87 and SKBR-3 cells; assay: Western blot of HRG stimulated cells; assay type: cell-based, human; conditions: 5 nM antibody, 100 ng/ml HRG, 1-24 hours
Procedure: Cells of an exponentially grown culture were harvested and seeded in 10 cm dishes (20×10^6 cells for N87 and 7×10^6 cells for SKBR-3) in starvation medium (N87 cells: RPMI-1640, 0.05% BSA, 10 µg/ml Holo-transferrin; SKBR-3 cells: DMEM/F-12, 2 mM L-glutamine, 0.05% BSA, 10 µg/ml Holo-transferrin). The next day, antibodies were added to a final concentration of 5 nM and cells were incubated for one hour. HRG was then added to a final concentration of 100 ng/ml. After 1, 3, 6 or 24 hours, dishes were placed on ice, cells were washed twice with cold PBS, transferred to Eppendorf tubes and lysed with 250 µl of RIPA lysis buffer (20 mM Tris-HCl pH 7.5, 150 mM NaCl, 1 mM Na2EDTA, 1 mM EGTA, 1% NP-40, 1% sodium deoxycholate, 0.1% SDS, 2.5 mM sodium pyrophosphate, 1 mM beta-glycerophosphate, 1 mM Na3VO4, 1 µg/ml leupeptin). Lysis was allowed to proceed for 30 minutes on ice. Cell lysates were centrifuged and supernatants were collected in new Eppendorf tubes. Protein concentration was determined using the BCA method (Pierce). […] Membranes were blocked for one hour with TBS-T containing 5 % BSA and stained with the indicated antibodies according to the manufacturer’s instructions (Cell Signaling Technology). Membranes were then incubated with a HRP-conjugated secondary antibody, incubated with ECL substrate and subjected to autoradiography using X-ray films (Amersham). […]

SKBR-3 and N87 cells = assay: Internalization of pH-sensitive dye labelled antibodies; assay type: cell-based, human; conditions: 100 nM labelled antibody, 1 ng/ml HRG

PB4188: bispecific HER2xHER3 IgG: HER2 arm MF3958, HER3 arm MF3178
ADCC activity [1]: effective at high antibody concentrations | Efficacy on tumor size (JIMT-1 tumor): more potent than lapatinib or the combination pertuzumab and trastuzumab | Binding affinity compared to trastuzumab (AUC of median fluorescence) [2]: higher binding affinity | HER3 phosphorylation [3]: prolonged inhibition of HER3 phosphorylation | Internalization (SKBR-3 and N87 cells): internalizes to the same extend as trastuzumab
